Assays:
p38MAPK = assay: Phospho-p38MAPK ELISA; format: cell-based, rat; details: 10 μM Aβ1-42 oligomers for 30 min, 100 μg/mL antibody
Procedure: FIG. 5 provides graphs and immunocytochemical images corresponding to the experiments described in Example 6.6. […] An IgG1 monoclonal antibody not binding to Aβ was used as control. The activity of p38MAP K was measured by a phospho-specific ELISA as described in Methods (A). The mean (±SEM) of 4 independent experiments is shown. Statistical analysis was done using one-way ANOVA followed by Tukey post-hoc multiple comparison. Activation of p38MAPK with Aβ1-42 oligomers complexed with monoclonal antibody was specific to microglia (B). Cells were treated as described above and then stained for phospho-p38MAP K (green), with Iba1 (red), and with DAPI (blue). […] Pure microglia from CX3CR1-GFP mice were used to verify microglia-specific p38 activity (C). […] A cytotoxicity assay using the MTT readout was performed after 24 h. The mean (±SEM) of 4 experiments is shown. […]
Rat cortical cultures were seeded onto poly-L-lysine coated 6-well cell-culture plates (Costar, Cambridge, Mass., USA) and used at DIV 5. […] Protein concentration was determined by the BCA assay (Pierce, Rockford, Ill., USA). For semi-quantitative measure of p38MAPK activation, a rat phospho-p38MAPK colorimetric ELISA kit was used (Cell Signaling Technology, Beverly, Mass., USA), following the manufacturer's instructions. Plates were read on a spectrophotometric microplate reader (Tecan) at a […]. […]

Aβ1-42 = Aβ1-42 (Homo sapiens, UniProt P05067); assay: Aβ ELISA, binding to Aβ peptides and Aβ1-42 assembly states; parameters: purchased Bachem; details: ELISA; monomeric, oligomeric, fibers, oligomer assemblies
Aβ1-42, sequence (P05067 672-713): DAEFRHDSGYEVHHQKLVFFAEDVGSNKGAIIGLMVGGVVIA
Text: FIG. 1 provides graphs and immunohistochemical images corresponding to the experiments described in Example 6.1 and 6.2. […] As a control, an anti-Aβ IgG monoclonal antibody with a N-terminal epitope was used. […] The mean (±SEM) of two assays is shown.
Murine anti-Aβ monoclonal antibodies were generated by immunizing mice with an Aβ peptide antigen using a liposomal vaccine formulation as previously described (Muhs et al., 2007). Several criteria were used to select candidate antibodies, including the ability to bind multiple Aβ species and to inhibit Aβ1-42 assembly into small cytotoxic peptide aggregates. A monoclonal murine mAb with an IgG2b backbone (mMABT) was selected for in vivo functionality studies using both single-transgenic murine mutant human APP and double-transgenic murine mutant human APP/PS1 models of Alzheimer's Disease. […] These ranged from monomeric and oligomeric Aβ1-42 fractions isolated by size-exclusion chromatography (SEC), mature Aβ1-42 fibers, to a more complex mixture of highly neurotoxic Aβ1-42 oligomer assemblies, ranging in size from dimers and trimers to higher molecular-weight multimers (see FIG. 8).

enriched microglia = assay: TNFα release by enriched microglia; format: cell-based, rat; details: 24 h of treatment
Procedure: FIG. 6 provides a graph corresponding to the experiments described in Example 6.6. […] The release of TNFα by enriched microglia was measured following 24 h of treatment (see Methods). The mean (±SEM) of three independent experiments is shown. Statistical analysis was done using one-way ANOVA followed by Tukey post-hoc multiple comparison.
To link the increased microglia activity more directly to a downstream pro-inflammatory readout, the TNFα release by primary cell cultures enriched for microglia was measured ([…] Iba1^+, not shown). The release of pro-inflammatory TNFα by enriched microglia when treated with Aβ1-42 oligomers was reduced in the presence of all anti-Aβ monoclonal antibodies tested (FIG. 6). […] Thus, an anti-Aβ IgG4 monoclonal antibody may have a more desirable profile as compared to an anti-Aβ IgG1 monoclonal antibody, combining neuroprotective effects and ability to promote Aβ engulfment by microglia with limited microglial activation.
Rat cortical cultures enriched for microglia (>60% Iba1^+ of total DAPI^+ cells) were treated with 10 μM Aβ1-42 oligomers with or without 100 μg/mL antibodies for 6 h and 24 h. LPS (Sigma) at 1 μg/mL was used as a positive control stimulus. […]

[1] = test system: primary cortical cultures; assay: Intracellular Aβ1-42 accumulation ELISA on trypsin-cleared cells; format: cell-based, rat
Procedure: FIG. 3 provides graphs and immunocytochemical images corresponding to the experiments described in Example 6.4. Aβ1-42 oligomer binding to neurites was reduced by the anti-Aβ IgG4 monoclonal antibody. […] Green indicates staining with TuJ1, red indicates labeling with anti-Aβ (clone 6E10), and blue indicates staining with DAPI. […] Quantitative measures of fluorescence are shown for 30 min treatment and 18 h treatment (B). Mean results (±SEM) of two experiments are shown. […] Cortical cultures from P1 rats were treated as described for (A), except that Aβ1-42 tagged with HyLite Fluor-488 was used (C). Aβ1-42-labeled samples are shown in the upper panel and DAPI-stained samples are shown in the lower panel. […] Aβ1-42 fluorescence was quantified, with the mean (±SD) of the two independent experiments shown (D). […]
The intracellular accumulation of Aβ1-42 was determined in trypsin-cleared cells using an ELISA assay.
To measure intracellular Aβ1-42 accumulation by ELISA, primary cortical cultures were treated in 6-well cell-culture plates (Costar) after which they were washed and trypsin-cleared (Bateman et al., 2007) before lysis in cell-lysis buffer consisting of 50 mM Tris-HCl (pH 8.0), 150 mM NaCl, 5 mM EDTA, 1 mM sodium orthovanadate, 1% Triton X-100, and containing protease- and phosphatase-inhibitor cocktails. Protein concentration was determined by the BCA assay (Pierce). […]

| Substance | Aβ1-42 oligomer-induced p38MAPK activity (p38MAPK) | binding to different Aβ1-42 peptide preparations (Aβ1-42) | release of TNFα by enriched microglia treated with Aβ1-42 oligomers (enriched microglia) | reduction of Aβ1-42 oligomer internalization (intracellular accumulation) [1] |
| --- | --- | --- | --- | --- |
| MABT-IgG1: same antigen binding sequences as MABT on human IgG1 wild-type backbone with full FcγR-binding capacity | increased the Aβ1-42 oligomer-induced p38MAPK activity even further | – | – | – |
| MABT: humanized anti-Aβ monoclonal antibody of IgG4 isotype, affinity matured and humanized form of mouse mMABT | did not reduce the Aβ1-42 oligomer-induced p38MAPK activity, but rather showed a trend towards higher activity | highly comparable among the different Aβ1-42 assembly states | greatest effect | more than 60% |

Reference: patent US9221900B2, “Methods for identifying safe and functional humanized antibodies” (AC IMMUNE S.A., priority 2010, dated 2015)
